# Data: a melting point compilation (Tetko et al.; mined from patent text by program, amines drawn as free bases though some values may be those of a salt)
row,SMILES,melting point [°C]
1,CCOC(=O)c1ncn2c1c(C)nc1ccccc12,192 to 193
2,O=C1CC2c3ccccc3CCN2C2CCCCC12 (configuration not stated),112 to 140
3,CN(C)Cc1nnc2n1-c1ccccc1C(c1ccccc1Cl)=NC2,143 to 145
4,O=C(O)COc1ccc2cc(-c3cnc(-c4cn(Cc5ccccc5)c5ccccc45)o3)ccc2c1,238 to 242
5,CCCCCCCCCCCCCCCC(=O)NC(Cc1cc(CP(=O)(O)O)cc(-c2ccccc2)c1)C(=O)O (configuration not stated),130 to 140
6,Nc1c(-n2cncn2)cnn1-c1c(Cl)cc(C(F)(F)F)cc1Cl,170 to 174
7,CCCc1nc2c(N)nc3ccccc3c2n1CC1(O)CCC1,228 to 229
8,CN(C)C(=O)Nc1ccc(SCc2nc(Cl)ccc2Cl)cc1,112 to 114
9,Fc1ccc(-n2nccc2-c2ccnc(NCc3ccccc3)c2)cc1,125 to 127
10,Cc1ccc(-c2c(N(C)C(=O)OC(C)(C)C)n(CC(C)C)c(=O)c3ccc(OCc4ccccc4)cc23)cc1,164
11,CC(=O)NC1(C)CC(C)(C)CC(C)(C)C1,110
12,O=C(Oc1ccccc1)N1Cc2ccccc2C2(Cc3ccc(Cl)cc3O2)C1 (configuration not stated),138 to 140
13,COc1cc(/C=C/CNc2cccc(-c3ccnc4c(C(=O)c5cccs5)cnn34)c2)ccc1O,180 to 184
14,Cc1ccc(Cl)c2nc3cccc(C(=O)NCCCN(C)CCCNC(=O)c4cccc5nc6c(Cl)ccc(C)c6nc45)c3nc12,200 to 202
15,Cc1ccc(-c2ccccc2)cc1CNC(=O)N(C)N,91.6
16,CNC(=S)NS(=O)(=O)c1cc(CCNC(=O)c2cnc3ccccc3c2)ccc1OCCOc1ccccc1,89 to 91
17,CNc1nn2nnnc2c2c1CCCC2,318
18,CC(C)c1ccc(CN(C(=N)N)c2ccc3c4c(cccc24)CC3)cc1,153 to 155
19,C=CCc1c(O)ccc2c1CCC(=O)N2,236 to 239
20,CC(SC1COC(c2ccc(C(=O)Nc3ccc(C#N)cc3F)cc2)OC1)C(O)(Cn1cncn1)c1ccc(F)cc1F (configuration not stated),136
21,Cc1cccc2c(=O)cc(N3CCOCC3)oc12,148
22,COC(=O)CCC1(CCC(=O)OC)c2cc(I)ccc2-c2ccc(I)cc21,106 to 108
23,CC(O)C1=C(c2ccccc2)C(=O)N(C(C)(C)C(=O)Nc2cc(Cl)cc(Cl)c2)CO1 (configuration not stated),85 to 88
24,Cc1cc(-c2cncc(OC3SCC(O)C(O)C3O)c2)ccn1 (configuration not stated),120

row,SMILES,melting point [°C]
1,CCOC(=O)Nc1c([N+](=O)[O-])cc(C)c(C)c1[N+](=O)[O-],51 to 54
2,OCc1nn(-c2ccc(Cl)cc2)c2c1CCC2,149 to 150
3,COc1cc2c(cc1F)CC(C)C2=O (configuration not stated),76 to 78
4,COC(=O)c1nc(C)ccc1OC,55 to 57
5,CCCC(=O)NN=C(C)c1sc(C)nc1C,124
6,C[C@@H](NC(=O)OC(C)(C)C)C(=O)NCCCN1CCN(CCCNc2cccc3c2C(=O)c2ccccc2C3=O)CC1,78 to 80
7,CCn1cc(C(=O)O)c(=O)c2cc(Cl)c(N3CCCCC3)cc21,230
8,COc1ccc(OC)c(C(O)c2cccc(N)c2)c1 (configuration not stated),132 to 134
9,CCOc1ccc(-c2nc(-c3ccc(OS(=O)(=O)C(F)(F)F)c(C(=O)OC)c3)cs2)cc1OCC,112 to 113
10,CC(=O)Nc1c(C)ccc(O)c1C,190 to 195
11,Nn1nc(-c2ccccc2)cc1OCCN1CCCC1,138
12,Cc1nc(Nc2ccc(C(C)C)cc2Br)c([N+](=O)[O-])c(-c2ccccc2C(F)(F)F)n1,146
13,COc1cc(-c2[nH]c(SC)nc2-c2ccc(F)cc2)ccn1,158
14,Fc1cc(F)c(-c2c(Cl)nc(Cl)n2-c2ccc(Cl)cc2)c(F)c1,112 to 119
15,CCCCCCCCc1ccc(N(c2ccc(CCCCCCCC)cc2)C2(c3c(C)n(CC)c4ccccc34)OC(=O)c3ccccc32)cc1 (configuration not stated),106 to 108
16,O=Cc1c(N2CCCC2)n(C2OC(CO)C(O)C2O)c2cc(Cl)c(Cl)cc12 (configuration not stated),131 to 134
17,FC(F)(F)c1cccc(Nc2ncnc(NCc3ccco3)n2)c1,207 to 209
18,COc1cc(COc2nn(-c3ccccc3)cc2C=O)ccc1OCc1csc(N2CCOCC2)n1,128 to 129
19,CN(C)CCCCCCNc1nc2cc(Cl)c(Cl)cc2nc1-c1ccccn1,88 to 90
20,O=S(=O)(Cl)C=Cc1ccc(C2CCCCC2)c(Br)c1,93 to 97
21,NC(Cc1ccccc1F)=NO,85 to 87
22,OC1CSC(Oc2cccnc2-c2ccoc2)C(O)C1O (configuration not stated),128
23,CC(C)c1cc(C(=O)Nc2ccc(C(=O)O)c(O)c2)sc1C(C)C,129 to 130
24,O=C1c2cccc3c([N+](=O)[O-])c(Br)cc(c23)C(=O)N1O,232 to 233

row,SMILES,melting point [°C]
1,Cc1cc(C=C2SC(=S)NC2=O)cc2c1OCC(=O)N2Cc1ccc(CN2CCCCC2)cc1,277 to 278
2,CCc1cn(C2CC(O)C(CNC(=O)C(C)Sc3ccc(Cl)cc3Cl)O2)c(=O)[nH]c1=O (configuration not stated),218 to 220
3,O=C1CNc2ncc(I)cc2N1Cc1cc(C(F)(F)F)ccc1Cl,252 to 253
4,C#CCNc1c(-c2c(F)cc(F)cc2F)c(Cl)nc2ncnn12,141
5,COc1ccc2c(c1)CC(=O)c1cc(C(C)C(=O)O)ccc1S2 (configuration not stated),152 to 153
6,Cc1cc(-c2ccc(F)cc2F)n(-c2ccc(S(N)(=O)=O)cc2)c1,170 to 172
7,CCc1cccc(CC(=O)O)c1OCCCc1cc(OC(C)C)nn1Cc1ccc(Cl)cc1Cl,98 to 99
8,CN(C)c1ccc(C=NO)c([N+](=O)[O-])c1,140 to 143
9,Cc1ccc(C(=O)c2c(O)cc(C(=O)O)cc2[N+](=O)[O-])cc1,250 to 251
10,CC(C)=NOCc1nc2c(N)nc3cccnc3c2n1CCCNC(=O)OC(C)(C)C,148 to 150
11,Cc1ncnc2nc(N)c(-c3c(Cl)cccc3Cl)cc12,280 to 282
12,CN1CSC(=Cc2cc(C(C)(C)C)c(O)c(C(C)(C)C)c2)C1=O,142 to 144
13,Cc1cc(=O)n2cccc(OCc3ccccc3Cl)c2n1,166 to 168
14,CCOC(=O)c1ncc2[nH]c3ccc(C(=O)OCc4ccccc4)cc3c2n1,271 to 272
15,CN(CCCSc1ccncc1)C(=O)c1cccs1,72 to 72.5
16,COC(=O)c1cncs1,68
17,Nc1ccc(-c2cccc(Cl)c2)cc1C(O)(C1CC1)C1CC1,90 to 92
18,COc1cc(C=O)c([N+](=O)[O-])cc1OCCCl,148 to 150
19,CCOC(=O)C(C(=O)c1ccc(OC)cc1)N(N)c1ccccn1 (configuration not stated),130 to 131
20,c1ccc2c(c1)c1ccccc1n2-c1ccc2c(c1)Sc1ccc(-n3c4ccccc4c4ccccc43)cc1S2,350
21,COC(=O)c1cccc2c(C)c(C)oc12,54.5 to 55.5
22,CCCCCCOc1cc(C=O)c(OCCCCCC)cc1C=O,74.5 to 76
23,COc1ccc2cc(C(OC)(OC)C(C)OS(=O)(=O)c3ccc(C)cc3)ccc2c1 (configuration not stated),148 to 150
24,COC(=O)CCc1cc2cc(C(F)(F)F)ccc2n1S(=O)(=O)c1ccccc1,81 to 83
